Broadly, the IC50 is the concentration that inhibits the measured activity by half. One may read the EC50 as the concentration needed to bring the measured effect to its halfway point.

This note sets out measurements from patent US20080255206A1, “Rxr Agonists and Antagonists, Alone or in Combination with Ppar Ligands, in the Treatment of Metabolic and Cardiovascular Diseases” (priority 2005, published 2008).

One experiment concerns the target T1, RARβ (Homo sapiens, UniProt P10826).
T1 sequence (P10826 183-417 limits assumed): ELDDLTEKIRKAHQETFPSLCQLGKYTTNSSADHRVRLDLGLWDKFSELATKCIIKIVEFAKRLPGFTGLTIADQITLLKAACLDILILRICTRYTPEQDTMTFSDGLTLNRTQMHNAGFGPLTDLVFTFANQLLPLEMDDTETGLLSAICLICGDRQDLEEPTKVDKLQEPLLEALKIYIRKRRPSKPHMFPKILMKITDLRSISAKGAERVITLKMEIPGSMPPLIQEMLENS
In words: Retinoid binding assay, RARβ. Also on record: The DEF domains of RAR's and the full length RXR's, expressed in E.coli; made in house; host or cells: E. coli. As to conditions: read-out: Binding Affinity IC50 RAR β. The source says: (§1) The DEF domains of RAR's and the full length RXR's, expressed in E.coli, are used to measure competitive retinoid binding. […] 9-cis retinoic acid (for RXR's), respectively. […] Separation of bound from free radioactivity is achieved by charcoal/dextran (RAR's) or by desalting columns (RXR's). […] Retinoid Activation Assays

A further experiment concerns the target T2, RARγ (Homo sapiens, UniProt P13631).
T2 construct: The DEF domains of RAR's and the full length RXR's, expressed in E.coli; made in house; host or cells: E. coli
T2 sequence (P13631 185-419 limits assumed): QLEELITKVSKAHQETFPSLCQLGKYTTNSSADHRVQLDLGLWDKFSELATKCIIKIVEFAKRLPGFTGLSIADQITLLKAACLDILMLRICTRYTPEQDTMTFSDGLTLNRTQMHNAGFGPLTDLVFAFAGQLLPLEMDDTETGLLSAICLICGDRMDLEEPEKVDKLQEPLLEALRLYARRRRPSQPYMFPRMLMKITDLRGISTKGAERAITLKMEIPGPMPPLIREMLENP
In words: Retinoid binding assay, RARγ. The following applies: read-out: Binding Affinity IC50 RAR γ.
Source text: as §1

For a further experiment, the target named is T3, PPARγ/RXRα Heterodimer (Homo sapiens, UniProt P19793).
T3 construct: co-transfected with plasmids expressing the full length RXR heteropartner receptor; expressed in transfected cells
T3 sequence (P19793 1-462): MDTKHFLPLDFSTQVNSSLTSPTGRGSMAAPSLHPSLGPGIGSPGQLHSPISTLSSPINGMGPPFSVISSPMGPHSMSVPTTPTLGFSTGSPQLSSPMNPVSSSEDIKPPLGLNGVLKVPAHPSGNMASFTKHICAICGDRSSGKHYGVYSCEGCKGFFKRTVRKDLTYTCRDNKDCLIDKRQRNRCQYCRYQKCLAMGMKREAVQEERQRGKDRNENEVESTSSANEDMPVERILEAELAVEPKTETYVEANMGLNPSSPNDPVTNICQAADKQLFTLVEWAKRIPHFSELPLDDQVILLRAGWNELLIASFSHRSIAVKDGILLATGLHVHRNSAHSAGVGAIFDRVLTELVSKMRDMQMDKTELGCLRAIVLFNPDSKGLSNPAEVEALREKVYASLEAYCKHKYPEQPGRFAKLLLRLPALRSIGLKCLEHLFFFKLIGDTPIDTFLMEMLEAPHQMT
T3 sequence (P37231 1-505 partner): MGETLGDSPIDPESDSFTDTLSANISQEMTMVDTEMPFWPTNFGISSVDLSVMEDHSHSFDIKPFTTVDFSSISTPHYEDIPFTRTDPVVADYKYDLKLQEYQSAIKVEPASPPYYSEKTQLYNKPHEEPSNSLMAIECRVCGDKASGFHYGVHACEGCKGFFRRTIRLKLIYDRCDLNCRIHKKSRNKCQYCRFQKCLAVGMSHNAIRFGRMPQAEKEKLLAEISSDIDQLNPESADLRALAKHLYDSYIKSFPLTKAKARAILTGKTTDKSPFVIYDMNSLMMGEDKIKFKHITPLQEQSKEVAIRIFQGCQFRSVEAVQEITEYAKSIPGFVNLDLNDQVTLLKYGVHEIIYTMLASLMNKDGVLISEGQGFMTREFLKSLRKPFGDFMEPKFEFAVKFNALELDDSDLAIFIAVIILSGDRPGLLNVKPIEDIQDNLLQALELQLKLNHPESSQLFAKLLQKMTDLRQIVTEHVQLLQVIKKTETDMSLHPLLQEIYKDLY
In words: PPARγ/RXRα heterodimer activation (transactivation) assay. The class given is cell-based. The essentials: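 Cell-based luciferase transactivation: cells co-transfected with plasmids for full-length PPARγ, full-length RXR heteropartner and a luciferase reporter driven by multiple copies of the natural PPAR response element; ligand-dependent reporter activity measured.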

In another experiment the target is T4, RXRα (Homo sapiens, UniProt P19793).
T4 sequence (P19793 1-462): T3 sequence (P19793 1-462)
In words: Retinoid activation assay, RXRα (Schneider SL-3 cells, luciferase reporter). The class given is cell-based. As to conditions: read-out: Activation EC50 RXR α. The essentials: (§2)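 Drosophila Schneider SL-3 cells transiently transfected (Ca-phosphate, 3-4 h before assay) with full-length RXR cDNA plus luciferase reporter driven by three rat CRBP RXR response elements on an alcohol dehydrogenase promoter. Supernatant luciferase read after incubation; EC50 is concentration giving half-maximal activation.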
(A reporter such as luciferase makes a cellular process visible.)

In experiment [1] the target is T5, RXRγ (Homo sapiens, UniProt P48443).
T5 sequence (P48443 1-463): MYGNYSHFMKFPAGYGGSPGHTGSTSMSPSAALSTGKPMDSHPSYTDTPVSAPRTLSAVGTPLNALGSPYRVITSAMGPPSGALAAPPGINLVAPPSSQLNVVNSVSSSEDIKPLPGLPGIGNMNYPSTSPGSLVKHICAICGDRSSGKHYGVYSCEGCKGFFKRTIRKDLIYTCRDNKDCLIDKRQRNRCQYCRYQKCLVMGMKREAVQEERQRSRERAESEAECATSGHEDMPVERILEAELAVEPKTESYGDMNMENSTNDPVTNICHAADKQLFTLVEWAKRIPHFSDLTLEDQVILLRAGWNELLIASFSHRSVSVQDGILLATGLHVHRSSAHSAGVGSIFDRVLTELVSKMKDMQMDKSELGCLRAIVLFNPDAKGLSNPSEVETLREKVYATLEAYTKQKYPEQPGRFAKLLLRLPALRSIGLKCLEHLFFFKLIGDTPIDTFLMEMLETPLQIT
In words: Retinoid binding assay, RXRγ. Also on record: made in house; host or cells: E. coli. The following applies: [3H] 9-cis retinoic acid 20 nM; read-out: Binding Affinity IC50 RXR γ.
Source text: as §1

Experiment [2] has as its target T5, RXRγ. In words: Retinoid activation assay, RXRγ (Schneider SL-3 cells, luciferase reporter). The following applies: read-out: Activation EC50 RXR γ. The experiment is classed as cell-based. The essentials:
as §2

For `CC(/C=C/C1=C(c2ccc3c(c2)C(C)(C)CCC3(C)C)CCC1)=C\C(=O)O` [Compound 12, (2E,4E)-3-Methyl-5-[2-(5,5,8,8-tetramethyl-5,6,7,8-tetrahydro-naphthalen-2-yl)-cyclopent-1-enyl]-penta-2,4-dienoic acid], the IC50 turned out to be 2.5 µM on RARβ, 6.6 µM on RARγ and 0.12 µM at RXRγ [1]. The EC50 at PPARγ/RXRα Heterodimer turned out to be 0.0077 µM; at RXRα it was 0.009 µM; on RXRγ [2], 0.15 µM.
Regarding `CC1=C(C#CC2=C(/C=C/C(C)=C/C(=O)O)CCCCC2)C(C)(C)CCC1` [Compound 18], the results for the IC50 on RARβ, at RARγ and at RXRγ [1] were > 10 µM, > 10 µM and 0.065 µM, respectively. For the same compound, the 50% effective concentration (EC50) at PPARγ/RXRα Heterodimer was > 10 µM; on RXRα, ≥ 10 µM; on RXRγ [2], ≥ 10 µM.
`CCOc1c([C@@H]2C[C@@H]2/C=C/C(C)=C/C(=O)O)cc(C(C)(C)C)cc1C(C)(C)C` (racemic) [Compound 17, (2E,4E)-(1RS,2RS)-5-[2-(3,5-Di-tert-butyl-2-ethoxy-phenyl)-cyclopropyl]-3-methyl-penta-2,4-dienoic acid]: the half-maximal inhibitory concentration (IC50) at RARβ is > 10 µM; at RARγ, > 10 µM; at RXRγ [1], 0.069 µM. Besides, the EC50 is > 10 µM on PPARγ/RXRα Heterodimer, ≥ 10 µM at RXRα and ≥ 10 µM on RXRγ [2].
